The values below come from US20250381121A1, “COMPOSITION FOR PERSONAL CARE PRODUCTS” (VAGINAL BIOME SCIENCE, INC., priority 2024, published 2025).

In series [1] the test system is herpes simplex virus (HSV-2). The following applies: cited from earlier work.
The subject of the next series is Lactobacillus crispatus. The series is described as follows: Growth of Lactobacillus crispatus with UV-irradiated acemannan over 24 hours. It counts as cell-based. Here is the method: Growth media contained Dextrose-Free Sharpe (MRS) broth and Lactobacilli MRS Agar or an equivalent. Extract of irradiated aloe vera was further added to the MRS broth at 0.1 and 0.3% (w/v). A predetermined number of bacteria was added to each of the prepared medium and cultured at 37° C. under a suitable condition for the organism to be tested (anaerobic conditions for L. crispatus and L. gasseri). A small portion of the culture was removed at 2, 4, 6, 8, 12, 14, 16, 18, and 24 hours of culture. At each time point, collected samples containing the growing organisms are plated to quantify the live cell number.
The cell growth of Lactobacillus crispatus and Lactobacillus gasseri was determined by serial dilutions and plating to determine the bacterial counts at designated time points during the 24-h study period. Plates were cultured at 37° C. under a suitable condition for the organism to be tested (anaerobic conditions for L. crispatus and L. gasseri). Bacterial colonies were quantified at 0 and 16 hours after incubation.
The experiments were carried out using the method described above for EXAMPLE 4. Lactobacillus crispatus was cultured in the presence of varying concentrations (0.1%, 0.2%, 0.3%, 0.5%) of UV-irradiated acemannan or a negative control over a 24-hour period. Bacterial growth was quantified at 10 time points (0-24 hours) using log-scaled CFU/mL equivalents.

Where two headings read alike, the source gives them in different places.

As for `CCCCCCCCCCCC(=O)OCC(O)CO` (stereo not drawn) [glycerol monolaurate (GML), glycerol monolaurate], the “susceptibility to herpes simplex virus (HSV-2)” value (“susceptibility” below) is on record as “markedly increased” in series [1] (5% as a colloidal suspension in phosphate buffered saline, single exposure) and “markedly increased” in series [1] (5% formulated in K-Y Warming Jelly, single exposure).
For `CC(O)CO` (stereo not drawn) [propylene glycol], the “susceptibility” value in series [1] (in vivo) was “markedly increased”.
acemannan: the “enhancement of L. crispatus growth compared with negative control” value in the series on Lactobacillus crispatus (0.3% acemannan, at 10 hours (p<0.05)) is recorded as “significant enhancement of growth”. Besides, in the series with Lactobacillus crispatus (0.5% acemannan, significant at 6, 8, 10 and 18 hours (p<0.05)), the “stimulation of L. crispatus growth over negative control” value is “most robust and consistent stimulation”.
Consider “polyethylene glycol [polyethylene glycol (PEG-8)]”, for which the “susceptibility” value in series [1] (in vivo) is reported as “markedly increased”.
